IC50 data for two compounds are collected here from ChEMBL document CHEMBL1147604, “Dipeptidyl aspartyl fluoromethylketones as potent caspase-3 inhibitors: SAR of the P2 amino acid” (Bioorg Med Chem Lett, 2004).

A value given as a limit tells only on which side of the number the result lay.

For one test, the target named is T1, Caspase-3 (Homo sapiens, UniProt P42574).
T1 sequence (P42574 whole entry): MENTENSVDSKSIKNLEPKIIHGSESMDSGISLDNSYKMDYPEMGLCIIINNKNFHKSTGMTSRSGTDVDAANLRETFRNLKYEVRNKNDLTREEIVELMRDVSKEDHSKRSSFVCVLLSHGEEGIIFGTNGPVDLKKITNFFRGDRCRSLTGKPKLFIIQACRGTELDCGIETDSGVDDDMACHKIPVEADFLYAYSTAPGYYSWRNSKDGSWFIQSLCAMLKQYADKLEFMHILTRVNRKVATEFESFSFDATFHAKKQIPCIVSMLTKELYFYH
In words: Inhibitory activity against human recombinant Caspase-3 enzyme.

The target in the next test is Coagulation factor X (Homo sapiens, UniProt P00742). Briefly: Compound was evaluated for its inhibitory activity against the Coagulation factor X.
Chain of Coagulation factor X (P00742 41-179 limits assumed): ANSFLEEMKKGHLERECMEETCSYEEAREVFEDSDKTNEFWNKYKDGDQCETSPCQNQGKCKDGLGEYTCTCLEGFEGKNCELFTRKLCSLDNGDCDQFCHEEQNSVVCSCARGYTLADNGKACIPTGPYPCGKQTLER
Chain of Coagulation factor X (P00742 235-488 limits assumed): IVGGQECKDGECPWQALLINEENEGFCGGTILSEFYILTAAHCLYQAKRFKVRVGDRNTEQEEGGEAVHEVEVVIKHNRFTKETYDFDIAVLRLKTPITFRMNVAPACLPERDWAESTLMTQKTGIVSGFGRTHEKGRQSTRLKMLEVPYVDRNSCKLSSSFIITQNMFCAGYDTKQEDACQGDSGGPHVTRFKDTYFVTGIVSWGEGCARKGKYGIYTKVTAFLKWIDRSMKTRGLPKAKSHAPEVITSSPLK
A further test addresses Cathepsin B (Homo sapiens, UniProt P07858). Briefly: Compound was evaluated for its inhibitory activity against Cathepsin B.
Test [1] deals with T2, Calpain-1 catalytic subunit (Homo sapiens, UniProt P07384).
T2 sequence (P07384 whole entry): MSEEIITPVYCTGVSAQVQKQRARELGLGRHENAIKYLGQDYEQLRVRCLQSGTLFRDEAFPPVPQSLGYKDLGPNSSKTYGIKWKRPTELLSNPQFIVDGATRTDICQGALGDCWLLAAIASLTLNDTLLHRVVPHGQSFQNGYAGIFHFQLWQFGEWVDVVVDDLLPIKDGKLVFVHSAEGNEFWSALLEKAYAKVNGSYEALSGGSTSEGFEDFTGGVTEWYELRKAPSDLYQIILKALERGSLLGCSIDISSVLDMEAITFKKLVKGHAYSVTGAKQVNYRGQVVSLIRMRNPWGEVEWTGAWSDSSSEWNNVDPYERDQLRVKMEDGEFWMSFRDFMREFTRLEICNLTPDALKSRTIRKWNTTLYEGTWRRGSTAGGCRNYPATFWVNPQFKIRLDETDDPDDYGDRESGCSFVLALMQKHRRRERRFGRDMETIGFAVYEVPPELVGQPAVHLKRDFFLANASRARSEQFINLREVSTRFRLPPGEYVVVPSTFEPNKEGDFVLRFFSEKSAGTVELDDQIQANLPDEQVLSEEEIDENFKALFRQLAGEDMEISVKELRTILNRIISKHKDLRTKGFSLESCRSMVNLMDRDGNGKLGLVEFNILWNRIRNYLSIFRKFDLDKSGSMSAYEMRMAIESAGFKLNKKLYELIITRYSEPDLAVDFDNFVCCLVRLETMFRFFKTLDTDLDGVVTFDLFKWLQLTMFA
Briefly: Compound was evaluated for its inhibitory activity against the Calpain-1 enzyme.

The next test concerns the target T3, Caspase-1 (Homo sapiens, UniProt P29466).
T3 sequence (P29466 whole entry): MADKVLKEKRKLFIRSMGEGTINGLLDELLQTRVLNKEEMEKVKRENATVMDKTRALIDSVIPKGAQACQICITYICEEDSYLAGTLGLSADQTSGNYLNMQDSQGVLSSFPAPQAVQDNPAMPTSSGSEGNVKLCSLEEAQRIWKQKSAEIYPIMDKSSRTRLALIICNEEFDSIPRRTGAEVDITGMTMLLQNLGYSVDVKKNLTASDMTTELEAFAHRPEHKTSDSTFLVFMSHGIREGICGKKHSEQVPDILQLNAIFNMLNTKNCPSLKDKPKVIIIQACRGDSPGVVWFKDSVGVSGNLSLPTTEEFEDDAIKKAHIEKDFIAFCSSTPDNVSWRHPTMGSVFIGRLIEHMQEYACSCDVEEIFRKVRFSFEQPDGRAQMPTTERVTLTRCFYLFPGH
Briefly: Compound was evaluated for its inhibitory activity against the Caspase-1 enzyme.

Another test has as its target Prothrombin (Homo sapiens, UniProt P00734). In words: Compound was evaluated for its inhibitory activity against the Thrombin.
The next test deals with Caspase-8 (Homo sapiens, UniProt Q14790). Briefly: Compound was evaluated for its inhibitory activity against the Caspase-8 enzyme.
Chain of Caspase-8 (Q14790 217-374 limits assumed): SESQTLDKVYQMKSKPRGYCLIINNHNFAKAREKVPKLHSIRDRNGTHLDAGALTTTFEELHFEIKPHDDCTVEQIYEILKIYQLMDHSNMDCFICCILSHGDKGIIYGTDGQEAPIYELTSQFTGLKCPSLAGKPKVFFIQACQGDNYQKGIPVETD
Chain of Caspase-8 (Q14790 385-479 limits assumed): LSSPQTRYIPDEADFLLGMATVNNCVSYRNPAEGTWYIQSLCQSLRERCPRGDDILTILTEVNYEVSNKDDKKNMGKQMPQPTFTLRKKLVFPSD
The target in a further test is T4, Caspase-7 (Homo sapiens, UniProt P55210).
T4 sequence (P55210 whole entry): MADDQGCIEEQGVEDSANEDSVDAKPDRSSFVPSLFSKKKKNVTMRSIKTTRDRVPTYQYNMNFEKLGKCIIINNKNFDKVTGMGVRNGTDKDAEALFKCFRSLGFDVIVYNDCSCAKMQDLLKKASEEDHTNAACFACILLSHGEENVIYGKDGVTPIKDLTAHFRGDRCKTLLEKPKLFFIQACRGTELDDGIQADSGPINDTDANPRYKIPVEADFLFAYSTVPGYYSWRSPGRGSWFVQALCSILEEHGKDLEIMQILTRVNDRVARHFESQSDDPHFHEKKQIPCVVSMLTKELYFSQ
Briefly: Compound was evaluated for its inhibitory activity against the Caspase-7 enzyme.

The target in the next test is T5, Caspase-6 (Homo sapiens, UniProt P55212).
T5 sequence (P55212 whole entry): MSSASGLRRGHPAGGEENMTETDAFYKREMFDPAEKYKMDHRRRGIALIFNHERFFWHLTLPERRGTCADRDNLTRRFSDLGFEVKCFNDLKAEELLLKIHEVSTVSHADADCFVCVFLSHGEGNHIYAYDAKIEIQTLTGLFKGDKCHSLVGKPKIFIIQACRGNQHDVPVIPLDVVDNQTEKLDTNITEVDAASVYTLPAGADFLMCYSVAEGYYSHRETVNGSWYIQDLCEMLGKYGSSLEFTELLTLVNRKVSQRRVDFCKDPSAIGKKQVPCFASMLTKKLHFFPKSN
In words: Compound was evaluated for its inhibitory activity against the Caspase-6 enzyme.

A further test concerns the target T6, Caspase-9 (Homo sapiens, UniProt P55211).
T6 sequence (P55211 whole entry): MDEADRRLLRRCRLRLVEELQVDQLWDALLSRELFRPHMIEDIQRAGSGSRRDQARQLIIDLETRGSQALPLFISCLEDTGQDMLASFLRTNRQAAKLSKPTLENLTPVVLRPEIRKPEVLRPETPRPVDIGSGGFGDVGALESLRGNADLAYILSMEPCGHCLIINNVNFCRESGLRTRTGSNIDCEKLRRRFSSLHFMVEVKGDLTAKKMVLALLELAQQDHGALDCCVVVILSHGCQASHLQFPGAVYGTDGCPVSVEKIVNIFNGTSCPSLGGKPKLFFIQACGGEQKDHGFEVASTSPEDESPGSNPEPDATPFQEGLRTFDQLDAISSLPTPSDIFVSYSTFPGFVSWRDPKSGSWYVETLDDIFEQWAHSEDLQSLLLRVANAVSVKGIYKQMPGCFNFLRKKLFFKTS
Briefly: Compound was evaluated for its inhibitory activity against the Caspase-9 enzyme.

Test [2] addresses T2, Calpain-1 catalytic subunit. Briefly: Compound was evaluated for its inhibitory activity against the Calpain 1 enzyme.

For orientation: IC50 means the concentration needed to halve the response being measured. `COC(=O)CC(NC(=O)[C@@H](NC(=O)OCc1ccccc1)C(C)C)C(=O)CF` (stereo partly specified): the IC50 on Caspase-3 was 1100 nM; against Coagulation factor X it was above 100 µM; at Cathepsin B, 300 nM; in test [1] it was 120 nM; on Caspase-1 it was 900 nM; at Prothrombin it was above 100 µM.

Take `CC(C)[C@H](NC(=O)OCc1ccccc1)C(=O)NC(CC(=O)O)C(=O)CF` (stereo partly specified): the IC50 at Caspase-3 was 30 nM; against Coagulation factor X, above 100 µM; against Cathepsin B, above 10000 nM; against Caspase-8, 7 nM; against Caspase-7, 7 nM; against Caspase-6, 18 nM. In addition, the IC50 was 5 nM against Caspase-9, 20 nM on Caspase-1, above 100 µM on Prothrombin and above 10 µM in test [2].
